{"source": "paper PMC11984407", "about": "“A natural small molecule isoginkgetin alleviates hypercholesterolemia and atherosclerosis by targeting ACLY” (Theranostics, 2025)", "key": {"recombinant ACLY protein": {"biological_target": "T1, recombinant ACLY protein (Homo sapiens, UniProt P53396)", "T1 sequence (P53396 1-1101)": "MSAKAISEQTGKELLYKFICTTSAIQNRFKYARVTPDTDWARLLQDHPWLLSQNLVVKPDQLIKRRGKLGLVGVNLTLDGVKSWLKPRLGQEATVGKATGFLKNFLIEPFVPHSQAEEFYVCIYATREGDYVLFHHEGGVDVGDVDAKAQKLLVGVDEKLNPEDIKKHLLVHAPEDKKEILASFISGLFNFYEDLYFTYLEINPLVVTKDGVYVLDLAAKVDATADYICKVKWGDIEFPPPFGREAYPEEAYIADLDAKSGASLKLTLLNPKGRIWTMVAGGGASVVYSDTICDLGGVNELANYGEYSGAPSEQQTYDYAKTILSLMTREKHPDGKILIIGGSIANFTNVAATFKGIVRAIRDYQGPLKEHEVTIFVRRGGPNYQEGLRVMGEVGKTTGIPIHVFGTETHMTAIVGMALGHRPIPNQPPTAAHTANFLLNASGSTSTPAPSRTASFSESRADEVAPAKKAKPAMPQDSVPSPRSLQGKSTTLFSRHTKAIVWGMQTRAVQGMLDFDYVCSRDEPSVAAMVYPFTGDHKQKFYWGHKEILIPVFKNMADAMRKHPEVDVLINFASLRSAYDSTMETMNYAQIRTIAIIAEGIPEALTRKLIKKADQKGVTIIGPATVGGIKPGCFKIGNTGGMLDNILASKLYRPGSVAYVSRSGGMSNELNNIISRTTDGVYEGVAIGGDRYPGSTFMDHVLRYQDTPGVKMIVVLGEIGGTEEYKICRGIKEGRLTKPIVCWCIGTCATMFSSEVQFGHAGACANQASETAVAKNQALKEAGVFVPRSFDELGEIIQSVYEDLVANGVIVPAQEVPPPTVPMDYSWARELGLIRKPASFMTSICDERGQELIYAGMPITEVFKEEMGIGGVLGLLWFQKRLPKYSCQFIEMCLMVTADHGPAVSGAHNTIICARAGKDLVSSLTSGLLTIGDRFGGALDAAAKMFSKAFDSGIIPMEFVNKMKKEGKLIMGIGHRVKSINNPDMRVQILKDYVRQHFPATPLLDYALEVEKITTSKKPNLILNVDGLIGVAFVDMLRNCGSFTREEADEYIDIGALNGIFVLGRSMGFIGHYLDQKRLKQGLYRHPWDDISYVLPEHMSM", "test": "Surface plasmon resonance (OpenSPR)", "format": "binding", "conditions": "SPR, 1:1 Langmuir model; read-out: equilibrium dissociation constant (KD)", "protocol": "The interaction between isoginkgetin and ACLY was examined using an OpenSPR instrument (Nicaya, Canada). The recombinant ACLY protein was immobilized on a carboxyl sensor chip (SEN-AU-100-3-COOH; Nicaya, Canada) via a standard amine coupling method. Isoginkgetin was injected into the running buffer at various concentrations (ranging from 0.5 to 8 μM) at a flow rate of 20 μL/min. The interaction parameter KD was determined using TraceDrawer evaluation software based on the 1:1 Langmuir binding model."}, "Syrian golden hamsters": {"test_system": "Syrian golden hamsters", "test": "High cholesterol diet-fed Syrian golden hamsters", "format": "in vivo, hamster", "protocol": "Syrian golden hamsters were purchased from Vital River Laboratories (Beijing, China). Hamsters were fed a high cholesterol diet and received ISOGK (5 mg/kg/day) for 4 weeks. Before being sacrificed, liver and blood samples were collected at the end of the experiment. The animal study protocol was approved by the Ethics Committee of Hefei University of Technology (approval number HFUT20221031001) and conducted in accordance with the guidelines set forth in the \"Guide for the Care and Use of Laboratory Animals,\" published by the National Institutes of Health (NIH).\nPlasma levels of TC, TG, LDL-C, and high-density lipoprotein cholesterol (HDL-C) were determined following the manufacturer's instructions. Liver tissues (30-40 mg) were homogenized in 0.5 mL of cold PBS for hepatic TG and cholesterol measurement. A 0.4 mL homogenate was combined with 1.4 mL of a CHCl3/CH3OH mixture (2:1, v/v) and shaken overnight at room temperature. Following centrifugation at 2,500 × g for a period of 10 min, the organic phase was meticulously transferred and permitted to air-dry. The residual organic material was then reconstituted in 800 μL of ethanol containing 1% Triton X-100, whereby the ethanol served to solubilize the material.\nFast protein liquid chromatography (FPLC) was employed to analyze plasma lipoproteins using 200 μL of pooled plasma samples. The samples were initially filtered through 0.22-µm filters and subsequently loaded onto Tricorn high-performance Superose S-6 10/300GL columns (Amersham Biosciences). Elution was conducted with PBS at a constant flow rate of 0.25 mL/min. The eluted fractions (500 μL each) were subjected to analysis for TG and TC concentrations using the aforementioned commercial assay kits."}, "C57BL/6J mice": {"test_system": "C57BL/6J mice", "test": "Safety assessment in normal C57BL/6J mice", "format": "in vivo, mouse", "conditions": "20 mg/kg/day i.p., 4 weeks, male C57BL/6J"}, "[1]": {"conditions": "hamsters, 5 mg/kg/day i.p., 4 weeks"}}, "data": [{"smiles": "COc1ccc(-c2cc(=O)c3c(O)cc(O)c(-c4cc(-c5cc(=O)c6c(O)cc(O)cc6o5)ccc4OC)c3o2)cc1", "note": "[ISOGK, Isoginkgetin]", "values": [{"measurement": "Kd", "setting": "recombinant ACLY protein", "result": 5.1, "unit": "µM"}, {"measurement": "decrease in hepatic TC", "setting": "Syrian golden hamsters; [1]", "result": 27.53, "unit": "%"}, {"measurement": "decrease in hepatic TG", "setting": "Syrian golden hamsters; [1]", "result": 64.14, "unit": "%"}, {"measurement": "reduction in serum LDL-C", "setting": "Syrian golden hamsters; [1]", "result": 56.55, "unit": "%"}, {"measurement": "reduction in serum TC", "setting": "Syrian golden hamsters; [1]", "result": 36.12, "unit": "%"}, {"measurement": "reduction in serum TG", "setting": "Syrian golden hamsters; [1]", "result": 46.87, "unit": "%"}, {"measurement": "lipid deposition in liver (Oil Red O)", "setting": "Syrian golden hamsters; hamsters, 4 weeks", "result": "significantly reduced lipid deposition"}, {"measurement": "serum antioxidant indicators (MDA, SOD, ox-LDL)", "setting": "Syrian golden hamsters; hamsters, 4 weeks", "result": "remained unaltered"}, {"measurement": "serum TC and TG distribution (FPLC)", "setting": "Syrian golden hamsters; hamsters, pooled plasma", "result": "significant decrease in serum TC and TG distribution"}, {"measurement": "serum ALT and AST vs vehicle", "setting": "Syrian golden hamsters; high cholesterol diet-fed hamsters, 5 mg/kg/day i.p., 4 weeks", "result": "no significant difference"}, {"measurement": "LDLR and ACLY protein levels in the liver", "setting": "Syrian golden hamsters; hyperlipidemic hamsters, 5 mg/kg/day, 4 weeks", "result": "no significant difference"}, {"measurement": "H&E staining of heart, liver, spleen, lungs, kidneys", "setting": "C57BL/6J mice", "result": "no histological differences"}, {"measurement": "PAS staining of kidney tissues", "setting": "C57BL/6J mice", "result": "no significant difference in glycogen deposits"}, {"measurement": "body weight vs vehicle", "setting": "C57BL/6J mice", "result": "no statistically significant differences"}, {"measurement": "fasting blood glucose (FBG) vs vehicle", "setting": "C57BL/6J mice", "result": "no statistically significant differences"}, {"measurement": "lactate dehydrogenase (LDH)", "setting": "C57BL/6J mice", "result": "no variation"}, {"measurement": "ratio of liver weight to body weight", "setting": "C57BL/6J mice", "result": "no significant change"}, {"measurement": "serum ALT, AST, ALP, BUN, CREA, CK, CK-MB vs vehicle", "setting": "C57BL/6J mice", "result": "did not induce any significant difference"}]}]}
